Laboratory results from patent US11046699B2, “Pyrazolo-pyrimidin-amino-cycloalkyl compounds and their therapeutic uses” (RAPT THERAPEUTICS, INC., priority 2018, dated 2021).

The compounds below were run against GCN2 (Homo sapiens, UniProt Q9P2K8) (assay: GCN2 enzymatic endpoint assay: phosphorylation of GFP-eIF2α measured by TR-FRET (Lanthascreen)). Conditions: tested as described in Example 77; compound and/or hydrochloride, dihydrochloride or trifluoroacetic acid salt; read-out: IC 50 Activity.
Sequence of GCN2 (Q9P2K8 whole entry): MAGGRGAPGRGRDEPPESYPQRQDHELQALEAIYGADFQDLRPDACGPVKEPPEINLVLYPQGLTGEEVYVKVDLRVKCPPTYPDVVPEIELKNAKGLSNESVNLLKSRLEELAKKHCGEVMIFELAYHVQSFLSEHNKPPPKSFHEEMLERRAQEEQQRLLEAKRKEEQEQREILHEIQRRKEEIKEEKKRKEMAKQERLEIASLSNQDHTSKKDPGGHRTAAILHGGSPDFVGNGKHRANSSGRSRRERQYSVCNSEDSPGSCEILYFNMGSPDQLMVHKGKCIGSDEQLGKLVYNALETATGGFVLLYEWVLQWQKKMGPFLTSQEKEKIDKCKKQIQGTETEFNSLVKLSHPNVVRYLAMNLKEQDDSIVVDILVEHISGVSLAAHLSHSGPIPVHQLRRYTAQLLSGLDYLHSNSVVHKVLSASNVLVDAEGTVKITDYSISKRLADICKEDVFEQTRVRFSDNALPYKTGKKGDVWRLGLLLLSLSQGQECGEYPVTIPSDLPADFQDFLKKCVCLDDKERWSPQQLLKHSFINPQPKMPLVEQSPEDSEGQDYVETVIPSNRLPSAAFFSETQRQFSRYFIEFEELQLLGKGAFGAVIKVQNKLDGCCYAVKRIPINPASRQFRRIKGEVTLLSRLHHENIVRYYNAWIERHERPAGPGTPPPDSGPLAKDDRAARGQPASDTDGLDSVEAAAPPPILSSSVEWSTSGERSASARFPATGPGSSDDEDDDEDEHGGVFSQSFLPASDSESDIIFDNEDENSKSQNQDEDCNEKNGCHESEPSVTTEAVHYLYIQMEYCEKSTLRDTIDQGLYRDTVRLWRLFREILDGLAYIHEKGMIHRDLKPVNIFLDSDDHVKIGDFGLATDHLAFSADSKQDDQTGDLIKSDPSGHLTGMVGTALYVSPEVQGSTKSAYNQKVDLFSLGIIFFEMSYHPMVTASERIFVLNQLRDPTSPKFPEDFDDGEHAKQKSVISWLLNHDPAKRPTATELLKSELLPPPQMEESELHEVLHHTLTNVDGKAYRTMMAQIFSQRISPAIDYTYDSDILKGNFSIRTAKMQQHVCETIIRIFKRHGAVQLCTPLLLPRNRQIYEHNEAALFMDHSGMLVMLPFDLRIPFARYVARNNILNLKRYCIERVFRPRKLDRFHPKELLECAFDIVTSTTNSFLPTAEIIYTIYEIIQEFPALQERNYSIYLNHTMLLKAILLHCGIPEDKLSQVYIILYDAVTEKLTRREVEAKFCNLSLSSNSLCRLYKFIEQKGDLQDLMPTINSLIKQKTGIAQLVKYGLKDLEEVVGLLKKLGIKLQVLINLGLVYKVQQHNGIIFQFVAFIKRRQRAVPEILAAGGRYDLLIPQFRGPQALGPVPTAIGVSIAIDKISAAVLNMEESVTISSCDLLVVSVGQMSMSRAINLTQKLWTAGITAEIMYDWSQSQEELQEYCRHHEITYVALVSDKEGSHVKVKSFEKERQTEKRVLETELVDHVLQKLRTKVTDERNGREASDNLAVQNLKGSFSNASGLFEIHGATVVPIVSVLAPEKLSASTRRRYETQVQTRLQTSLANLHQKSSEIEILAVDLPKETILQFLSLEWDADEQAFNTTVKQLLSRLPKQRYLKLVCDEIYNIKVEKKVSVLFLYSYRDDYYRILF
Type: biochemical
Method in brief: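 Kinase activity is measured as phosphorylation of GFP-labelled eIF2α (80 nM) with ATP at 2 μM. Incubation runs 90 minutes at room temperature before EDTA quench and terbium-antibody detection.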

IC50	Compound
< 25 nM	O=C(N[C@@H]1CCNC[C@@H]1F)[C@@H]1CC[C@@H](Nc2ncc3c(Br)nn(-c4cc(F)c5ncccc5c4)c3n2)C1 [(1R,3R)-3-((3-bromo-1-(8-fluoroquinolin-6-yl)-1H-pyrazolo[3,4-d]pyrimidin-6-yl)amino)-N-((3S,4R)-3-fluoropiperidin-4-yl)cyclo-pentane-1-carboxamide]
< 25 nM	O=C(N[C@@H]1CCOC1)[C@@H]1CC[C@@H](Nc2ncc3c(Br)nn(-c4cc(F)c5ncccc5c4)c3n2)C1 [(1R,3R)-3-((3-bromo-1-(8-fluoroquinolin-6-yl)-1H-pyrazolo[3,4-d]pyrimidin-6-yl)amino)-N-((R)-tetrahydrofuran-3-yl)cyclopentane-1-carboxamide]
500 to 1000 nM	COCCNC(=O)[C@@H]1CC[C@@H](Nc2ncc3c(Br)nn(-c4ccc5nccn5c4)c3n2)C1 [(1R,3R)-3-((3-bromo-1-(imidazo[1,2-a]pyridin-6-yl)-1H-pyrazolo[3,4-d]pyrimidin-6-yl)amino)-N-(2-methoxyethyl)cyclopentane-1-carboxamide]
25 to 200 nM	COCCNC(=O)[C@@H]1CC[C@@H](Nc2ncc3c(Br)nn(-c4ccc5ccncc5c4)c3n2)C1 [(1R,3R)-3-((3-bromo-1-(isoquinolin-7-yl)-1H-pyrazolo[3,4-d]pyrimidin-6-yl)amino)-N-(2-methoxyethyl)cyclopentane-1-carboxamide]
500 to 1000 nM	O=C(O)[C@@H]1CCC[C@@H](Nc2ncc3c(Br)nn(-c4ccc5ncccc5c4)c3n2)C1 [(1R,3R)-3-((3-bromo-1-(quinolin-6-yl)-1H-pyrazolo[3,4-d]pyrimidin-6-yl)amino) cyclohexane-1-carboxylic acid]
25 to 200 nM	CN(C)S(=O)(=O)[C@@H]1CC[C@@H](Nc2ncc3c(Br)nn(-c4ccc5ncccc5c4)c3n2)C1 [(1R,3R)-3-((3-bromo-1-(quinolin-6-yl)-1H-pyrazolo[3,4-d]pyrimidin-6-yl)amino)-N,N-dimethylcyclopentane-1-sulfonamide]
200 to 500 nM	COCC(C)(C)NC(=O)[C@@H]1CC[C@@H](Nc2ncc3c(Br)nn(-c4ccc5ncccc5c4)c3n2)C1 [(1R,3R)-3-((3-bromo-1-(quinolin-6-yl)-1H-pyrazolo[3,4-d]pyrimidin-6-yl)amino)-N-(1-methoxy-2-methylpropan-2-yl)cyclopentane-1-carboxamide]
25 to 200 nM	CN(C)CCNC(=O)[C@@H]1CC[C@@H](Nc2ncc3c(Br)nn(-c4ccc5ncccc5c4)c3n2)C1 [(1R,3R)-3-((3-bromo-1-(quinolin-6-yl)-1H-pyrazolo[3,4-d]pyrimidin-6-yl)amino)-N-(2-(dimethylamino)ethyl)cyclopentane-1-carboxamide]
25 to 200 nM	CC(C)NC(=O)CN(C)C(=O)[C@@H]1CC[C@@H](Nc2ncc3c(Br)nn(-c4ccc5ncccc5c4)c3n2)C1 [(1R,3R)-3-((3-bromo-1-(quinolin-6-yl)-1H-pyrazolo[3,4-d]pyrimidin-6-yl)amino)-N-(2-(isopropylamino)-2-oxoethyl)-N-methylcyclo-pentane-1-carboxamide]
200 to 500 nM	CS(=O)(=O)CCNC(=O)[C@@H]1CC[C@@H](Nc2ncc3c(Br)nn(-c4ccc5ncccc5c4)c3n2)C1 [(1R,3R)-3-((3-bromo-1-(quinolin-6-yl)-1H-pyrazolo[3,4-d]pyrimidin-6-yl)amino)-N-(2-(methylsulfonyl)ethyl)cyclopentane-1-carboxamide]
25 to 200 nM	CC(CNC(=O)[C@@H]1CC[C@@H](Nc2ncc3c(Br)nn(-c4ccc5ncccc5c4)c3n2)C1)N1CCCC1 (stereo partly drawn) [(1R,3R)-3-((3-bromo-1-(quinolin-6-yl)-1H-pyrazolo[3,4-d]pyrimidin-6-yl)amino)-N-(2-(pyrrolidin-1-yl)propyl)cyclopentane-1-carboxamide]
200 to 500 nM	O=C(NCCOC(F)(F)F)[C@@H]1CC[C@@H](Nc2ncc3c(Br)nn(-c4ccc5ncccc5c4)c3n2)C1 [(1R,3R)-3-((3-bromo-1-(quinolin-6-yl)-1H-pyrazolo[3,4-d]pyrimidin-6-yl)amino)-N-(2-(trifluoromethoxy)ethyl)cyclopentane-1-carboxamide]
25 to 200 nM	O=C(NCCO)[C@@H]1CC[C@@H](Nc2ncc3c(Br)nn(-c4ccc5ncccc5c4)c3n2)C1 [(1R,3R)-3-((3-bromo-1-(quinolin-6-yl)-1H-pyrazolo[3,4-d]pyrimidin-6-yl)amino)-N-(2-hydroxyethyl)cyclopentane-1-carboxamide]
200 to 500 nM	CC(C)OCCNC(=O)[C@@H]1CC[C@@H](Nc2ncc3c(Br)nn(-c4ccc5ncccc5c4)c3n2)C1 [(1R,3R)-3-((3-bromo-1-(quinolin-6-yl)-1H-pyrazolo[3,4-d]pyrimidin-6-yl)amino)-N-(2-isopropoxyethyl)cyclopentane-1-carboxamide]
25 to 200 nM	COCCNC(=O)[C@]1(C)CC[C@@H](Nc2ncc3c(Br)nn(-c4ccc5ncccc5c4)c3n2)C1 [(1R,3R)-3-((3-bromo-1-(quinolin-6-yl)-1H-pyrazolo[3,4-d]pyrimidin-6-yl)amino)-N-(2-methoxyethyl)-1-methylcyclopentane-1-carboxamide]
25 to 200 nM	COCCNS(=O)(=O)[C@@H]1CC[C@@H](Nc2ncc3c(Br)nn(-c4ccc5ncccc5c4)c3n2)C1 [(1R,3R)-3-((3-bromo-1-(quinolin-6-yl)-1H-pyrazolo[3,4-d]pyrimidin-6-yl)amino)-N-(2-methoxyethyl)cyclopentane-1-sulfonamide]
25 to 200 nM	O=C(NCCN1CCOCC1)[C@@H]1CC[C@@H](Nc2ncc3c(Br)nn(-c4ccc5ncccc5c4)c3n2)C1 [(1R,3R)-3-((3-bromo-1-(quinolin-6-yl)-1H-pyrazolo[3,4-d]pyrimidin-6-yl)amino)-N-(2-morpholinoethyl)cyclopentane-1-carboxamide]
25 to 200 nM	CC1(NC(=O)[C@@H]2CC[C@@H](Nc3ncc4c(Br)nn(-c5ccc6ncccc6c5)c4n3)C2)CCOC1 (stereo partly drawn) [(1R,3R)-3-((3-bromo-1-(quinolin-6-yl)-1H-pyrazolo[3,4-d]pyrimidin-6-yl)amino)-N-(3-methyltetrahydrofuran-3-yl)cyclopentane-1-carboxamide]
25 to 200 nM	O=C1CC(CNC(=O)[C@@H]2CC[C@@H](Nc3ncc4c(Br)nn(-c5ccc6ncccc6c5)c4n3)C2)CCN1 (stereo partly drawn) [(1R,3R)-3-((3-bromo-1-(quinolin-6-yl)-1H-pyrazolo[3,4-d]pyrimidin-6-yl)amino)-N-((2-oxopiperidin-4-yl)methyl)cyclopentane-1-carboxamide]
200 to 500 nM	CC1(CNC(=O)[C@@H]2CC[C@@H](Nc3ncc4c(Br)nn(-c5ccc6ncccc6c5)c4n3)C2)COC1 [(1R,3R)-3-((3-bromo-1-(quinolin-6-yl)-1H-pyrazolo[3,4-d]pyrimidin-6-yl)amino)-N-((3-methyloxetan-3-yl)methyl)cyclopentane-1-carboxamide]
200 to 500 nM	O=C(NC[C@@H]1COCCN1)[C@@H]1CC[C@@H](Nc2ncc3c(Br)nn(-c4ccc5ncccc5c4)c3n2)C1 [(1R,3R)-3-((3-bromo-1-(quinolin-6-yl)-1H-pyrazolo[3,4-d]pyrimidin-6-yl)amino)-N-(((R)-morpholin-3-yl)methyl)cyclopentane-1-carboxamide]
25 to 200 nM	O=C(NC[C@H]1COCCN1)[C@@H]1CC[C@@H](Nc2ncc3c(Br)nn(-c4ccc5ncccc5c4)c3n2)C1 [(1R,3R)-3-((3-bromo-1-(quinolin-6-yl)-1H-pyrazolo[3,4-d]pyrimidin-6-yl)amino)-N-(((S)-morpholin-3-yl)methyl)cyclopentane-1-carboxamide]
500 to 1000 nM	COC[C@@H](C)NC(=O)[C@@H]1CCC[C@@H](Nc2ncc3c(Br)nn(-c4ccc5ncccc5c4)c3n2)C1 [(1R,3R)-3-((3-bromo-1-(quinolin-6-yl)-1H-pyrazolo[3,4-d]pyrimidin-6-yl)amino)-N-((R)-1-methoxypropan-2-yl)cyclohexane-1-carboxamide]
25 to 200 nM	O=C(N[C@@H]1CCOC1)[C@@H]1CC[C@@H](Nc2ncc3c(Br)nn(-c4ccc5ncccc5c4)c3n2)C1 [(1R,3R)-3-((3-bromo-1-(quinolin-6-yl)-1H-pyrazolo[3,4-d]pyrimidin-6-yl)amino)-N-((R)-tetrahydrofuran-3-yl)cyclopentane-1-carboxamide]
500 to 1000 nM	COC[C@H](C)NC(=O)[C@@H]1CCC[C@@H](Nc2ncc3c(Br)nn(-c4ccc5ncccc5c4)c3n2)C1 [(1R,3R)-3-((3-bromo-1-(quinolin-6-yl)-1H-pyrazolo[3,4-d]pyrimidin-6-yl)amino)-N-((S)-1-methoxypropan-2-yl)cyclohexane-1-carboxamide]
25 to 200 nM	COC[C@H](C)NC(=O)[C@@H]1CC[C@@H](Nc2ncc3c(Br)nn(-c4ccc5ncccc5c4)c3n2)C1 [(1R,3R)-3-((3-bromo-1-(quinolin-6-yl)-1H-pyrazolo[3,4-d]pyrimidin-6-yl)amino)-N-((S)-1-methoxypropan-2-yl)cyclopentane-1-carboxamide]
25 to 200 nM	O=C(N[C@H]1CCOC1)[C@@H]1CC[C@@H](Nc2ncc3c(Br)nn(-c4ccc5ncccc5c4)c3n2)C1 [(1R,3R)-3-((3-bromo-1-(quinolin-6-yl)-1H-pyrazolo[3,4-d]pyrimidin-6-yl)amino)-N-((S)-tetrahydrofuran-3-yl)cyclopentane-1-carboxamide]
25 to 200 nM	O=C(NCc1ncco1)[C@@H]1CC[C@@H](Nc2ncc3c(Br)nn(-c4ccc5ncccc5c4)c3n2)C1 [(1R,3R)-3-((3-bromo-1-(quinolin-6-yl)-1H-pyrazolo[3,4-d]pyrimidin-6-yl)amino)-N-(oxazol-2-ylmethyl)cyclopentane-1-carboxamide]
25 to 200 nM	O=C(NC1COC1)[C@@H]1CC[C@@H](Nc2ncc3c(Br)nn(-c4ccc5ncccc5c4)c3n2)C1 [(1R,3R)-3-((3-bromo-1-(quinolin-6-yl)-1H-pyrazolo[3,4-d]pyrimidin-6-yl)amino)-N-(oxetan-3-yl)cyclopentane-1-carboxamide]
25 to 200 nM	O=C(NC1CCOCC1)[C@@H]1CC[C@@H](Nc2ncc3c(Br)nn(-c4ccc5ncccc5c4)c3n2)C1 [(1R,3R)-3-((3-bromo-1-(quinolin-6-yl)-1H-pyrazolo[3,4-d]pyrimidin-6-yl)amino)-N-(tetrahydro-2H-pyran-4-yl)cyclopentane-1-carboxamide]
